According to patent publication US6911474B2, “Methods, compounds, and compositions for reducing body fat and modulating fatty acid metabolism” (The Regents of the University of California, priority 2001, dated 2005):

How the values were obtained:
[1] = Plasma hormone levels by radioimmunoassay (HPA axis); format: in vivo, rat; conditions: Table 3
Description: Blood chemistry. Plasma β-hydroxybutyrate and glycerol were measured using commercial kits (Sigrna, St. Louis, Mo.). Plasma prolactin, corticosterone and luteinizing hormone were quantified by radioimmunoassay (Navarro et al., Neuroreport, 8:491-496 (1997)).

Adipocyte = test: Lypolysis (glycerol release) in adipocytes; format: cell-based, rat
[2] = Food intake after intracerebroventricular administration to 24 h food-deprived rats; format: in vivo, rat
Description: (§1) Feeding experiments. Acute experiments. Food intake was measured in 24-h food-deprived rats (Navarro et al., J. Neurochem., 67:1982-1991 (1996)), administering drugs 15 min before food presentation. Subchronic experiments. Ad libitum fed rats received vehicle injections for three days. On day four, the animals were divided in two equal groups and gave them daily injections of vehicle or OEA (5 mg per kg at 1900 h) for 7 consecutive days, while measuring body weight, food intake and water intake.

[3] = Body (rectal) temperature; format: in vivo, rat; conditions: 5 or 20 mg per kg; FIG. 4e
Description: (§2) Other behavioral assays. The elevated plus maze test was conducted as described (Navarro et al., Neuroreport, 8:491-496 (1997)) after the administration of vehicle or OEA (20 mg per kg, i.p.). Horizontal activity in an open field (Beltramo et al., J. Neurosci., 20:3401-3407 (2000)) and pain threshold in the hot plate test (55° C.) (Beltramo et al., Science, 277:1094-1097 (1997)) were measured 15 min after injection of vehicle or OEA (20 mg per kg). Rectal temperature was measured using a digital thermometer (Martin-Calderón et al., Eur. J. Pharmacol., 344:77-86. (1998)).

Soleus muscle = test: [14C]oleate oxidation to CO2 in soleus muscle; format: cell-based, rat
[4] = Acute food intake in 24-h food-deprived rats after i.p. administration; format: in vivo, rat
Description: as §1
The effects of systemically administered OEA on food intake in rats can be assessed using a 24 h fast. […] To define the selectivity of this response, various OEA analogs were evaluated for their ability to produce hypophagia.

Open field activity test = format: in vivo, rat; conditions: at a dose substantially higher than those required to produce hypophagia; FIG. 4h
Description: as §2

Astrocyte = test: [14C]oleate oxidation to ketone bodies in astrocytes; format: cell-based, rat
[5] = Elevated plus maze anxiety test; format: in vivo, rat; conditions: FIG. 4g
Description: as §2

[6] = target: T1, cannabinoid receptors (rat brain membranes) (Rattus norvegicus, UniProt P20272); test: Displacement of cannabinoid binding to rat brain membranes in vitro
T1 construct: from tissue; host or cells: rat brain membranes
T1 sequence (P20272 whole entry): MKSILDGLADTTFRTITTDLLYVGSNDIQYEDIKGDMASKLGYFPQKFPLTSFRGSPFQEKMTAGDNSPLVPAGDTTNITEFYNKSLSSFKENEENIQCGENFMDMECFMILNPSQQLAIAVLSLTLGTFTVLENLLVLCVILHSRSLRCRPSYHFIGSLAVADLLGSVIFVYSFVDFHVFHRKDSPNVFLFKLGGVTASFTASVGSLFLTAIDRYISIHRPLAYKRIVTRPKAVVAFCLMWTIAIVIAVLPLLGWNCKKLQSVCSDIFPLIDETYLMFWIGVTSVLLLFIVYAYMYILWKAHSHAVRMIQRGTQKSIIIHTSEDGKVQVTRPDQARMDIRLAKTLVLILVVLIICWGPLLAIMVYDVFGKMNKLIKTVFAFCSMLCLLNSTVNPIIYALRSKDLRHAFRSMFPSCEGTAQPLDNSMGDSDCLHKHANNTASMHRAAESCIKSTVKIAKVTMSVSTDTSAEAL

Cardiomyocyte = test: [14C]oleate oxidation to CO2 in cardiomyocytes; format: cell-based, rat
[7] = Hot plate test, pain threshold; format: in vivo, rat; conditions: FIG. 4f
Description: as §2

c-fos mRNA = c-fos mRNA in situ hybridization in brain; format: in vivo, rat; conditions: 10 mg per kg, i.p., 60 min
Description: In situ hybridization. Rats were accustomed to the handling and injection procedure for five days. On day six, vehicle or drug OEA (10 mg per kg, i.p.), or oleic acid (10 mg per kg) was administered, and the rats killed 60 min later by decapitation under anesthesia. In situ hybridization analyses were conducted using ^35S-labeled cRNA probes for c-fos (Guthrie et al., Proc. Natl. Acad. Sci. U.S.A., 90:3329-3333 (1993)) and choline acetyl transferase (ChAT) (Lauterbom et al., Brain Res. Mol. Brain Res., 17:59-69 (1993)). Average hybridization densities were determined from at least three tissue sections per rat. Statistical significance was evaluated using one-way analysis of variance (ANOVA) followed by the Tukey-Kramer post-hoc test for paired comparisons.

Acute water intake = format: in vivo, rat; conditions: 5 or 20 mg per kg; FIG. 4d
Description: FIG. 4. Oleoylethanolamide/[…] selectively suppresses food intake: […] Vehicle alone (70% DMSO in saline, 1 ml per kg, i.p.) had no significant effect on acute food intake; (b) time course of the hypophagic effects of oleoylethanolamide (20 mg per kg, i.p.) (squares) or vehicle (lozenges) on food intake. […] Empty bars, water intake; filled bars, saccharin intake. Effects of vehicle (V) or oleoylethanolamide (5 or 20 mg per kg) on: (d) water intake (expressed in ml per 4 h); (e) body temperature; (f) latency to jump in the hot plate analgesia test; (g) percent time spent in open arms in the elevated plus maze anxiety test; (h) number of crossings in the open field activity test; (i) number of operant responses for food. Asterisk, P<0.05, n=8-12 per group.

[8] = Operant responses for food; format: in vivo, rat; conditions: at a dose substantially higher than those required to produce hypophagia; FIG. 4i
Description: Operant responses for food. Rats were trained to lever press for food on a fixed ratio 1 (FR1) schedule of reinforcement, while food-restricted at 20 g of chow per rat per day (Rodriguez de Fonseca et al., Acta Pharmacol. Sin., 20:1109-1114 (1999)). Once stable responding was achieved, the animals were trained to acquire an FR5, time out 2-min schedule of food reinforcement and kept in limited access to food. When a stable baseline was obtained, the animals were used to test the effects of vehicle or OEA (1, 5 or 20 mg per kg) administered 15 min before lever presentation. Test duration was 60 min.

Q: What does the source list for `CCCCCCCC/C=C\CCCCCCCC(=O)NCCO` [OEA, Oleoylethanolamide]?
A: activity of the hypothalamus-pituitary-adrenal (HPA) axis [1]: did not alter; Stimulatory effect of 10 μM OEA (%) on lypolysis (glycerol release) (Adipocyte; Adipocyte, 10 μM, 30 min incubation): 38 ± 16%; mobilization of triacylglycerol stores (Adipocyte; primary white adipose tissue cells): significant mobilization; effect on food intake after direct injection into the brain ventricles [2]: ineffective; food intake, 60 min ([2]; 0.4 μg per animal): 4.8 ± 0.4; food intake, 120 min ([2]; 0.4 μg per animal): 6.6 ± 0.4; food intake, 240 min ([2]; 0.4 μg per animal): 8.4 ± 0.4; food intake, 60 min ([2]; 2 μg per animal): 4.9 ± 0.4; food intake, 120 min ([2]; 2 μg per animal): 6.6 ± 0.6; food intake, 240 min ([2]; 2 μg per animal): 8.7 ± 0.5; food intake, 60 min ([2]; 10 μg per animal): 5.9 ± 0.2; food intake, 120 min ([2]; 10 μg per animal): 8.1 ± 0.4; food intake, 240 min ([2]; 10 μg per animal): 9.6 ± 0.7; body temperature [3]: did not alter; Stimulatory effect of 10 μM OEA (%) on [14C]oleate oxidation to CO2 (Soleus muscle; Soleus muscle, 10 μM, 30 min incubation): 36 ± 10%; fatty acid oxidation in words (Soleus muscle; primary cultures of skeletal muscle (soleus)): significantly stimulates; half-maximally effective dose for hypophagia [4]: 5 mg per kg; suppression of food intake (hypophagia) ([4]; 24-h food-deprived rats, 15 min before food presentation, FIG. 4a,b): dose- and time-dependent suppression; motor activity (Open field activity test): reduced; Stimulatory effect of 10 μM OEA (%) on [14C]oleate oxidation to ketone bodies (Astrocyte; Astrocyte, 10 μM, 30 min incubation): 2 ± 6%; fatty acid oxidation in words (Astrocyte; brain-derived astroglial cell cultures): no effect; anxiety-like symptoms [5]: did not produce anxiety-like symptoms; displacement of cannabinoid binding [6]: did not displace; Stimulatory effect of 10 μM OEA (%) on [14C]oleate oxidation to CO2 (Cardiomyocyte; Cardiomyocyte, 10 μM, 30 min incubation): 37 ± 9%; fatty acid oxidation in words (Cardiomyocyte; primary cultures of heart cells): significantly stimulates; pain threshold [7]: did not alter; c-fos expression in other brain regions (c-fos mRNA): not significantly affected; c-fos mRNA levels in the PVN, supraoptic nucleus and NST (c-fos mRNA): highly localized increase; water intake (Acute water intake): did not alter; operant responses for food [8]: reduced
